Source: ChEMBL document CHEMBL3430912, “GSK Tres Cantos Anti-Kinetoplastid Screening (TCAKS) Data”

Assays:
[1] = tested on: Trypanosoma brucei brucei; assay: GSK_TCAKS: pIC50 Trypanosoma brucei viability assay using luminiscence. Assay plates (1536-well) were prepared. T. brucei cultures were harvested and counted in a CASY cell counter. A parasite suspension was prepared at a final concentration of 5 * 10^4 cells/mL in complete HMI9 medium and 6uL was dispensed to all wells containing compounds using a Multidrop Combi dispenser. 6uL of HMI9 media with 0.4% DMSO were dispensed to control columns. Plates were incubated for 24 h at 37C, 5% CO2 then tempered for 10 min at room temperature. ATP content was quantified by adding 4 uL of CellTiter-Glo Reagent (Promega) according to the manufacturer's instructions. Luminescence was measured using a ViewLux.; type: functional, organism-based; conditions: Lister 427, CASY
[2] = target: Sterol 14-alpha demethylase (Trypanosoma cruzi (strain CL Brener), UniProt Q7Z1V1); assay: GSK_TCAKS: pIC50 CYP51 from Trypanosoma cruzi.; type: functional
Chain of Sterol 14-alpha demethylase (Q7Z1V1 whole entry): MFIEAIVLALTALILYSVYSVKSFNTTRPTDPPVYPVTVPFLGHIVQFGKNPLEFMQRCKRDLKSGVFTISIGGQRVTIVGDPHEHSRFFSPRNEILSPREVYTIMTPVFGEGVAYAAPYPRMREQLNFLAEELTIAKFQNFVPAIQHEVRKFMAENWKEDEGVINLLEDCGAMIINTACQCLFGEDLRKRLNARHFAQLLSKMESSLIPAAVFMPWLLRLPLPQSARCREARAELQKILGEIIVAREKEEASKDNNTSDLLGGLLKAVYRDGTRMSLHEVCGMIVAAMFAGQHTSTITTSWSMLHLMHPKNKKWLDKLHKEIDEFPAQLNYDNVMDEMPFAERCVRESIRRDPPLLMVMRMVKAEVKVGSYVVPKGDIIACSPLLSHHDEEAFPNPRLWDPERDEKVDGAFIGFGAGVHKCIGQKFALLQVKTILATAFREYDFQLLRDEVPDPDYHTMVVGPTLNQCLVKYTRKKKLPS

Trypanosoma cruzi [3] = assay: (§1) GSK_TCAKS: pIC50 H2C9 Imaging: H9c2 Host Cardiomyocytes. […] Cells were then washed once with PBS before infection. T. cruzi trypomastigotes, collected at days 5 to 8 after infection from LLC-MK2 parasite infected cultures, were allowed to swim out for 4h at 37C from a centrifuged pellet (2,500 rpm/10 min/room temperature). Trypomastigotes were then collected and counted in a CASY Cell Counter. Trypomastigotes, in supplemented DMEM, were added to H9c2 cultures in a multiplicity of infection of 1 and incubated for 18 h. Cells were washed once with PBS before incubation of the infected H9c2 monolayer with trypsin (Life-Technologies) to detach cells from the flask. Cells were counted in a CASY Cell Counter using a 150 um capillary and their density set at 5 * 10^4 cells per mL in supplemented assay DMEM. Infected H9c2 were dispensed into 384-well poly-lysine coated assay plates at 50uL per well using a Multidrop Combi dispenser. After seeding them, the plates were incubated at 37C, 5% CO2 for 72h. Cultures were then fixed and stained by addition of 50 uL of a solution containing 8% formaldehyde and 4 uM DRAQ5 DNA dye (BioStatus, UK) per well. […] Five images were collected per well for reliable statistical analysis. Automated image analysis was performed with a script developed on Acapella High Content Imaging and Analysis Software (PerkinElmer). Output: Number of H9c2 Host Cardiomyocytes nuclei to determine drug-related cytotoxicity.; type: functional, organism-based, Rattus norvegicus; conditions: H9c2, 4 h
Trypanosoma cruzi [4] = assay: as §1, with “Trypanosoma cruzi” for “H2C9”, “Infected Cells.” for “H9c2 Host Cardiomyocytes.”, “percentage” for “Number”, “infected cells per well as a second infection marker.” for “H9c2 Host Cardiomyocytes nuclei to determine drug-related cytotoxicity.”; type: functional, organism-based, Rattus norvegicus; conditions: H9c2, 4 h
Leishmania donovani [5] = assay: GSK_TCAKS: pIC50 Leishmania donovani viability assay using fluorescence intensity. Assay plates (1536-well) were prepared by adding 30nL per well of compound. For single shot assay, the final compound concentration was 5uM. […] Briefly, eGFP LdBOB axenic amastigotes were harvested, fixed and counted in a CASY cell counter (Roche-Applied Science). A final concentration of 1.5 * 10^5 cells per well were prepared in amastigote media containing 500 U/mL penicillin/streptomycin (Invitrogen) and 6uL was dispensed to each experimental well using a Multidrop Combi dispenser (Thermo Scientific). 6uL of assay media was dispensed to control columns used as reference for 100% compound response. Following incubation for 72 h at 37C, 5% CO2, 2 uL of resazurin was added to each well at a final concentration of 0.5 mM in phosphate buffered saline (PBS) with IGEPAL (Sigma-Aldrich), 0.05% (v/v).; type: functional, organism-based
Leishmania donovani [6] = assay: (§2) GSK_TCAKS: pIC50 Leishmania donovani Imaging: Infected Macrophages. Assay plates (384-well) were prepared by adding 250nL of compound to each well. For single shot assay, the final compound concentration was 5 uM. […] Automated image analysis was performed with a script developed on Acapella High Content Imaging and Analysis Software (PerkinElmer). Output: Percent of infected macrophage cells were reported for each well.; type: functional, organism-based, Homo sapiens; conditions: THP-1
Trypanosoma cruzi [7] = assay: as §1, with “Trypanosoma cruzi” for “H2C9”, “Amastigotes/Cell.” for “H9c2 Host Cardiomyocytes.”, “number” for “Number”, “amastigotes per cell as infection level measurement.” for “H9c2 Host Cardiomyocytes nuclei to determine drug-related cytotoxicity.”; type: functional, organism-based, Rattus norvegicus; conditions: H9c2, 4 h
Leishmania donovani [8] = assay: as §2, with “THP-1 Host” for “Infected”, “THP-1 cell count” for “Percent of infected macrophage cells”; type: functional, organism-based, Homo sapiens
[9] = tested on: Trypanosoma brucei brucei; assay: GSK_TCAKS: pIC50 Trypanosoma brucei viability assay using fluorescence intensity. Assay plates (1536-well) were prepared by dispensing 25nL of compound solution per well using an Echo acoustic dispenser (Labcyte).; type: functional, organism-based; conditions: Lister 427, 2 h
Trypanosoma cruzi [10] = assay: GSK_TCAKS: pIC50 Trypanosoma cruzi viability assay using beta-GAL activity. This assay was run at single shot at 5uM compound concentration per well. The biological reagents consisted of NIH-3T3 host cells and trypomastigotes parasitic cells; both cell types were set to a 3.3 * 10^5 cells/mL dilution in assay DMEM by means of a CASY cell counter device using a 60um capillary. 6 uL of the mixture were dispensed per well (about 1 * 10^3 host-cells and 1 * 10^3 parasites) with a Multidrop Combi dispenser. […] In all wells, the percentage of DMSO never exceeded 0.5%. Plates incubated for four days at 37C, 5% CO2. The substrate used for the assay fluorescence intensity (FLINT) readout was resorufin-beta-D-galactopiranoside (Sigma-Aldrich) at 5uM per well. It was diluted in PBS supplemented with the soft detergent Igepal (Fluka).; type: functional, organism-based, Mus musculus; conditions: Tulahuen, NIH3T3
[11] = GSK_TCAKS: pIC50 HepG2 human cell line viability assay using luminiscence. […] Seeding density was checked to ensure that new mono-layers were not more than 50% confluent at the time of harvesting. Cell suspension was added to 500 mL of the same medium at a final density of 1.2 * 10^5 cells/mL. This cell suspension was dispensed (25 uL, 3000 cells per well) into 384-well clear-bottom plates using a Multidrop Combi dispenser. Prior to addition of the cell suspension, the screening compounds (250 nL) were pre-dispensed into the plates with an Echo liquid handler. Plates were incubated for 48 h at 37C, 5% CO2. After incubation, plates equilibrated at room temperature for 30 min before proceeding to develop the luminescent signal. The signal developer, CellTiter-Glo Reagent, was allowed to equilibrate at room temperature for 30 min and added to the plates (25uL per well) using a Multidrop Combi dispenser. Plates were left for 10 min at room temperature for stabilization and then read using a ViewLux.; type: toxicity, cell-based
Leishmania donovani [12] = assay: as §2, with “Amastigotes/Macrophages.” for “Infected Macrophages.”, “Average number” for “Percent”, “amastigotes per” for “infected”, “cell” for “cells”; type: functional, organism-based, Homo sapiens; conditions: THP-1

| SMILES | IC50 [1] [µM] | IC50 [2] [µM] | IC50 (Trypanosoma cruzi [3]) [µM] | IC50 (Trypanosoma cruzi [4]) [µM] | IC50 (Leishmania donovani [5]) [µM] | IC50 (Leishmania donovani [6]) [µM] | IC50 (Trypanosoma cruzi [7]) [µM] | IC50 (Leishmania donovani [8]) [µM] | IC50 [9] [µM] | IC50 (Trypanosoma cruzi [10]) [µM] | IC50 at 48 h [11] [µM] | IC50 (Leishmania donovani [12]) [µM] |
| --- | --- | --- | --- | --- | --- | --- | --- | --- | --- | --- | --- | --- |
| CCc1ccc2nc(NC(=O)c3cc(N4CCOCC4)ccn3)sc2c1 | 1 | > 100 | 39.8 | 0.794 | 2 | 1.26 | 0.501 | 10 | 0.501 | 2.51 | > 100 | 0.794 |
| Nc1nonc1-c1nc2cncc(C(=O)N3CC[C@H](N)C3)c2n1CC1CC1 | 0.794 | 12.6 | > 50.1 | > 50.1 | > 50.1 | 20 | 12.6 | 12.6 | 0.631 | > 50.1 | > 100 | 39.8 |
| Cn1ccnc1CN1CCc2[nH]cnc2C1c1ccccc1OCc1ccccc1 (stereo not drawn) | 0.501 | 7.94 | > 50.1 | > 50.1 | > 50.1 | > 50.1 | > 50.1 | > 50.1 | 0.398 | 39.8 | > 100 | > 50.1 |
| CN1CCC(N(C)c2nccc(N3CCN(C(=O)c4cccc(-c5cccnc5)c4)CC3)n2)CC1 | 1 | 1.58 | 7.94 | 1.26 | > 50.1 | 1.26 | 1 | 7.94 | 0.794 | 0.316 | 39.8 | 1.26 |
| CC(C)c1sc(Cl)nc1C(=O)NCCc1nc(C(=O)Nc2ccc3c(c2)OCO3)cs1 | 25.1 | 7.94 | > 50.1 | 1 | 3.98 | 5.01 | 0.631 | > 50.1 | 25.1 | 4.47 | > 100 | 2.51 |
| Cc1cc(N2CCc3ccccc3C2)nc(Nc2ccc(S(=O)(=O)N3CCOCC3)cc2)n1 | > 39.8 | > 100 | > 50.1 | > 50.1 | 3.16 | 5.01 | 25.1 | 25.1 | 31.6 | > 50.1 | > 100 | 1.58 |
| N#Cc1cccc(Nc2nccc(N3CCC(NS(=O)(=O)c4cccc(C#N)c4)CC3)n2)c1 | 6.31 | 7.94 | 31.6 | 7.94 | 0.631 | 10 | 3.16 | > 50.1 | 6.31 | 1.58 | 50.1 | 6.31 |
| CCC(CC)C(=O)Nc1ccc(-c2nnc(-c3ccc(OC)cc3)o2)cc1 | 0.501 | 12.6 | > 50.1 | 12.6 | > 50.1 | > 50.1 | 3.98 | > 50.1 | 0.501 | 5.01 | > 100 | > 50.1 |
| Cc1nn2c(=O)c3c([nH]c2c1-c1ccc(Cl)cc1)CCCC3 | 0.316 | > 100 | > 50.1 | 1 | 1.26 | > 50.1 | 0.251 | 12.6 | 0.158 | 0.398 | > 100 | > 50.1 |
